Patent US11993594B2, “IRAK inhibitors and method for making and using” (Rigel Pharmaceuticals, Inc., priority 2016, dated 2024)
Like-named read-outs stand apart in the source and are kept apart here.

Experiments:
[1] = test system: LPS induced IL-23 (p19/p40) in DC cells; assay: IL23-p19 ELISA, dendritic (DC) cells differentiated from human PBMC, LPS stimulated; format: cell-based; conditions: LPS 1 μg/ml, 18 hours, 10 pt
In short: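 Human PBMC-derived dendritic cells (7 days GM-CSF 100 ng/ml plus IL-4 20 ng/ml, then primed 24 h with IFNγ 50 ng/ml) pre-incubated 1 h with compound, then stimulated 18 h at 37 °C with LPS 1 μg/ml. Supernatant IL-23 measured by sandwich chemiluminescent ELISA (anti-p19 capture, anti-p40 detection); cytotoxicity by CellTiter-Glo.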

[2] = test system: LPS Induced IL23p19 in THP-1 Cells; assay: LPS Induced IL23p19 in THP-1 Cells (with IFNγ Primed) Assay; format: cell-based, human; conditions: THP-1 cells primed with IFNγ 50 ng/mL, LPS 1 ug/mL, 18 hours, 10 pt, read-out: IL23-p19 ELISA, THP1-IFNγ, LPS, 10 pt EC50
In short: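 THP-1 cells (50K/well) are primed with IFNγ at 50 ng/mL for about 18 h. They are then pre-treated with compound for 1 h and stimulated with LPS at 1 ug/mL final for 18 h at 37 °C. Secreted IL-23p19 is measured by chemiluminescent sandwich ELISA and EC50 is derived by curve fitting, with Cell Titer Glo as a viability counter-screen.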

EC50 ([1]; Table 1, IFNγ 50 ng/ml) [nM] | EC50 ([1]; Table 2, IFNγ 50 ng/ml) [nM] | EC50 ([2]; Table 1) [nM] | EC50 ([2]; Table 2) [nM] | EC50 ([1]; Table 3, IFNγ 50 ng/ml) [nM] | EC50 ([2]; Table 3) [nM] | Compound
25.6 | 25.6 | 83.3 | 83.3 | – | – | CCOC1CCC(n2cc(NC(=O)c3coc(-c4cnn(COP(=O)(O)O)c4)n3)c(-c3cnccn3)n2)CC1 (stereo not drawn) [Compound I-18, sodium (4-(4-((1-((1r,4r)-4-ethoxycyclohexyl)-3-(pyrazin-2-yl)-1H-pyrazol-4-yl)carbamoyl)oxazol-2-yl)-1H-pyrazol-1-yl)methyl phosphate]
– | – | – | – | 217 | 238 | N-(1-(2-(2-methoxyethoxy)ethyl)-3-(pyridin-2-yl)-1H-pyrazol-4-yl)-2-(1H-pyrazol-4-yl)oxazole-4-carboxamide [Compound I-24]
